# Data as given in ChEMBL document CHEMBL1201862, “PubChem BioAssay data set” (2004).
#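 96-well plates; 48 h exposure; 5 concentrations. Endpoints by linear interpolation between flanking doses. Not reached: highest tested concentration assigned. GI50 = concentration required for 50% inhibition of growth.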 Activity calls are given as the source filed them. Cut-off read from the data, not from the text of the source: active = GI50 up to about 1.1 µM and inactive = higher.
# Assays:
# Test in all cases: NCI anticancer screen, dose series, 48 h
# [1] = test system: CAKI-1
# [2] = test system: COLO 205
# [3] = test system: DU-145
# [4] = test system: HCT-15
# [5] = test system: Hs-578T
# [6] = test system: K562
# [7] = test system: M14
# [8] = test system: MOLT-4
# [9] = test system: Malme-3M
# [10] = test system: NCI-H522
# [11] = test system: OVCAR-3
# [12] = test system: OVCAR-5
# [13] = test system: RPMI-8226
# [14] = test system: SF-268
# [15] = test system: SF-295
# [16] = test system: SF-539
# [17] = test system: SK-MEL-28
# [18] = test system: SK-MEL-5
# [19] = test system: SW-620
# [20] = test system: UACC-62
Structure (SMILES),GI50 [1],GI50 [2],GI50 [3],GI50 [4],GI50 [5],GI50 [6],GI50 [7],GI50 [8],GI50 [9],GI50 [10],GI50 [11],GI50 [12],GI50 [13],GI50 [14],GI50 [15],GI50 [16],GI50 [17],GI50 [18],GI50 [19],GI50 [20]
COc1ccc(C2CC(c3c(C)nn(-c4ccccc4)c3-c3ccc(C)cc3O)=NN2c2ccccc2)cc1 (stereo unspecified),38.9 µM (inactive),12.7 µM (inactive),> 79.3 µM (inactive),7.71 µM,10.4 µM (inactive),7.13 µM (inactive),14.2 µM (inactive),4.65 µM (inactive),19.9 µM (inactive),24.8 µM (inactive),> 50.5 µM (inactive),> 35.1 µM (inactive),4.81 µM (inactive),> 73.6 µM (inactive),6.93 µM (inactive),> 78.5 µM (inactive),> 89.3 µM (inactive),18.5 µM (inactive),20.5 µM (inactive),23 µM (inactive)
Nc1ccc2c(c1)N(C(=O)c1cc3cc(NC(=O)c4cc5ccccc5o4)ccc3[nH]1)CC2CCl (stereo unspecified),0.0338 µM (active),0.0904 µM (active),0.0254 µM (active),0.0847 µM,0.293 µM (active),0.0662 µM (active),0.12 µM (active),0.045 µM (active),0.122 µM (active),< 0.01 µM (active),0.0743 µM (active),0.114 µM (active),0.0284 µM (active),0.0498 µM (active),0.0434 µM (active),0.0191 µM (active),0.177 µM (active),0.0397 µM (active),0.0973 µM (active),0.112 µM (active)
COC(=O)C1CCC(=O)N1CN(C(C)=O)c1cccc(O)c1 (stereo unspecified),> 100 µM (inactive),> 100 µM (inactive),> 100 µM (inactive),> 100 µM,> 100 µM (inactive),> 100 µM (inactive),> 100 µM (inactive),> 100 µM (inactive),> 100 µM (inactive),> 100 µM (inactive),> 100 µM (inactive),> 100 µM (inactive),> 100 µM (inactive),> 100 µM (inactive),> 100 µM (inactive),> 100 µM (inactive),> 100 µM (inactive),> 100 µM (inactive),> 100 µM (inactive),> 100 µM (inactive)
O=S(=O)(c1ccc(/N=C2\NC(c3ccc(O)cc3)(c3ccccc3O)c3ccccc32)cc1)c1ccc(/N=C2/NC(c3ccc(O)cc3)(c3ccccc3O)c3ccccc32)cc1 (stereo unspecified),12.9 µM (inactive),3.56 µM (inactive),4.65 µM (inactive),5.79 µM,3.4 µM (inactive),3.52 µM (inactive),3.87 µM (inactive),4.04 µM (inactive),2.32 µM (inactive),2.02 µM (inactive),4.74 µM (inactive),9.27 µM (inactive),5.22 µM (inactive),3.38 µM (inactive),5.28 µM (inactive),2.75 µM (inactive),,4.46 µM (inactive),,3.85 µM (inactive)
CC(=O)c1c2n(n(-c3ccccc3)c1=O)C(=O)c1nccnc1-2,> 100 µM (inactive),> 100 µM (inactive),> 100 µM (inactive),> 100 µM,> 100 µM (inactive),> 100 µM (inactive),> 100 µM (inactive),> 100 µM (inactive),> 100 µM (inactive),> 100 µM (inactive),> 100 µM (inactive),> 100 µM (inactive),> 100 µM (inactive),> 100 µM (inactive),> 100 µM (inactive),> 100 µM (inactive),> 100 µM (inactive),> 100 µM (inactive),> 100 µM (inactive),> 100 µM (inactive)
COc1cc([C@@H]2c3cc4c(cc3[C@@H](OC3OC5CO[C@@H](c6cccs6)OC5C(O)C3O)[C@H]3COC(=O)[C@H]23)OCO4)cc(OC)c1O (stereo partly specified),0.0733 µM (active),0.527 µM (active),0.324 µM (active),1.55 µM,0.42 µM (active),0.724 µM (active),0.594 µM (active),,0.656 µM (active),0.482 µM (active),1.73 µM (inactive),1.77 µM (inactive),0.164 µM (active),0.48 µM (active),0.144 µM (active),0.205 µM (active),1.66 µM (inactive),0.548 µM (active),0.24 µM (active),0.183 µM (active)
CC1(C)CC23CC(C)(C)c4cccc(c42)OCc2ccc4ccc5ccc(nc5c4n2)COc2cccc1c23,> 50 µM (inactive),> 50 µM (inactive),> 50 µM (inactive),> 50 µM,> 50 µM (inactive),> 50 µM (inactive),> 50 µM (inactive),> 50 µM (inactive),,> 50 µM (inactive),> 50 µM (inactive),> 50 µM (inactive),> 50 µM (inactive),> 50 µM (inactive),> 50 µM (inactive),> 50 µM (inactive),> 50 µM (inactive),> 50 µM (inactive),> 50 µM (inactive),> 50 µM (inactive)
COc1ccc(/C=C2\N=C(N3CCOCC3)NC2=O)cc1,> 100 µM (inactive),> 100 µM (inactive),> 100 µM (inactive),> 100 µM,> 100 µM (inactive),,> 100 µM (inactive),> 100 µM (inactive),> 100 µM (inactive),> 100 µM (inactive),> 100 µM (inactive),> 100 µM (inactive),> 100 µM (inactive),> 100 µM (inactive),> 100 µM (inactive),> 100 µM (inactive),> 100 µM (inactive),,> 100 µM (inactive),> 100 µM (inactive)
COC1=C2C[C@](OC)(C#CC=CC#CC2O)CC1(C)C (stereo partly specified),> 100 µM (inactive),> 100 µM (inactive),> 100 µM (inactive),> 100 µM,> 100 µM (inactive),54.8 µM (inactive),,49 µM (inactive),> 100 µM (inactive),> 100 µM (inactive),> 100 µM (inactive),> 100 µM (inactive),95.5 µM (inactive),> 100 µM (inactive),> 100 µM (inactive),> 100 µM (inactive),> 100 µM (inactive),> 100 µM (inactive),> 100 µM (inactive),34.6 µM (inactive)
CN(/N=C/c1ccc(Cl)c(Cl)c1)C1=NCCN1,17.3 µM (inactive),17.7 µM (inactive),48.6 µM (inactive),30.8 µM,18.1 µM (inactive),12.1 µM (inactive),16.5 µM (inactive),13.7 µM (inactive),18.8 µM (inactive),13.8 µM (inactive),28.6 µM (inactive),> 100 µM (inactive),24.8 µM (inactive),28.7 µM (inactive),24.8 µM (inactive),21.2 µM (inactive),,16.4 µM (inactive),16 µM (inactive),18.6 µM (inactive)
CCCCCCc1cc2cc(C(=O)Nc3ccccc3)c(=N)oc2cc1O,4.58 µM (inactive),38.4 µM (inactive),4.82 µM (inactive),3.45 µM,3.21 µM (inactive),,3.6 µM (inactive),2.16 µM (inactive),1.98 µM (inactive),1.94 µM (inactive),2.09 µM (inactive),> 83.6 µM (inactive),4.08 µM (inactive),4.85 µM (inactive),3.05 µM (inactive),4.49 µM (inactive),6.87 µM (inactive),2.56 µM (inactive),3.97 µM (inactive),2.26 µM (inactive)
